Measured values published in ChEMBL document CHEMBL5113512, “β-Nitrostyrene derivatives as broad range potential antifungal agents targeting fungal cell wall” (2022).
Converted amounts (≈) assume the structure as drawn. The source made the active and inactive calls. The rule behind the calls is not given here.

How the values were obtained:
[1] = system: Candida albicans; assay: Antifungal activity against wild type Candida albicans SN152 assessed as inhibition of fungal growth by broth microdilution method; format: functional
[2] = system: Candida albicans; assay: Antifungal activity against Candida albicans SN152 harboring CAS5 mutant assessed as inhibition of fungal growth by broth microdilution method; format: functional
[3] = system: Candida albicans; assay: Antifungal activity against Candida albicans ATCC 24433 overexpressing ADCaMDR1-GFP assessed as inhibition of fungal growth by broth microdilution method; format: functional
[4] = system: Candida albicans; assay: Antifungal activity against Candida albicans ATCC 24433 overexpressing ADPDR5-GFP assessed as inhibition of fungal growth by broth microdilution method; format: functional
[5] = system: Candida albicans; assay: Antifungal activity against Candida albicans ATCC 24433 assessed as inhibition of fungal growth by broth microdilution method; format: functional
[6] = system: [Candida] auris; assay: Antifungal activity against Candida auris 102 assessed as inhibition of fungal growth by broth microdilution method; format: functional; details: Candidozyma auris
[7] = system: Candida albicans; assay: Antifungal activity against Candida albicans ATCC 24433 overexpressing transporter protein F5 assessed as inhibition of fungal growth by broth microdilution method; format: functional
[8] = system: Candida tropicalis; assay: Antifungal activity against Candida tropicalis ATCC 750 assessed as inhibition of fungal growth by broth microdilution method; format: functional
[9] = system: Nakaseomyces glabratus; assay: Antifungal activity against Candida glabrata ATCC 2001 assessed as inhibition of fungal growth by broth microdilution method; format: functional
[10] = system: Candida albicans; assay: Antifungal activity against Candida albicans ATCC 24433 overexpressing ADCDR1-GFP assessed as inhibition of fungal growth by broth microdilution method; format: functional
[11] = system: Candida albicans; assay: Synergistic antifungal activity against Candida albicans ATCC 24433 overexpressing ADCaMDR1-GFP assessed as fractional inhibitory concentration index incubated for 48 hrs in presence of caspofungin by checker board assay; format: functional
[12] = system: [Candida] auris; assay: Antifungal activity against Candida auris 118 assessed as inhibition of fungal growth by broth microdilution method; format: functional; details: Candidozyma auris
[13] = system: Candida albicans; assay: Synergistic antifungal activity against Candida albicans ATCC 24433 overexpressing ADPDR5-G assessed as fractional inhibitory concentration index incubated for 48 hrs in presence of caspofungin by checker board assay; format: functional
[14] = system: Candida albicans; assay: Synergistic antifungal activity against Candida albicans ATCC 24433 assessed as fractional inhibitory concentration index incubated for 48 hrs in presence of caspofungin by checker board assay; format: functional
[15] = system: Candida albicans; assay: Antifungal activity against Candida albicans ATCC 24433 overexpressing transporter protein GU5 assessed as inhibition of fungal growth by broth microdilution method; format: functional
[16] = system: Candida albicans; assay: Antifungal activity against Candida albicans ATCC 24433 overexpressing AD(1-8)u-assessed as inhibition of fungal growth by broth microdilution method; format: functional
[17] = system: [Candida] auris; assay: Antifungal activity against Candida auris 105 assessed as inhibition of fungal growth by broth microdilution method; format: functional; details: Candidozyma auris
[18] = system: Candida albicans; assay: Antifungal activity against Candida albicans ATCC 24433 overexpressing transporter protein F2 assessed as inhibition of fungal growth by broth microdilution method; format: functional
[19] = system: Candida albicans; assay: Antifungal activity against Candida albicans ATCC 24433 overexpressing transporter protein GU4 assessed as inhibition of fungal growth by broth microdilution method; format: functional
[20] = system: [Candida] auris; assay: Antifungal activity against wild type Candida auris 102 assessed as inhibition of fungal growth by broth microdilution method; format: functional; details: Candidozyma auris
[21] = system: Candida parapsilosis; assay: Antifungal activity against Candida parapsilosis ATCC 90018 assessed as inhibition of fungal growth by broth microdilution method; format: functional; details: Lodderomyces parapsilosis
[22] = system: Candida albicans; assay: Synergistic antifungal activity against Candida albicans ATCC 24433 overexpressing ADCDR1-GFP assessed as fractional inhibitory concentration index incubated for 48 hrs in presence of caspofungin by checker board assay; format: functional
[23] = system: Candida albicans; assay: Inhibition of drug efflux in Candida albicans ATCC 24433 overexpressing AD(1-8)u- assessed as […] in nile red efflux incubated for 30 mins by flow cytometry; format: functional
[24] = system: Cell membrane; assay: Disruption of membrane integrity in Candida auris CBS10913 assessed as cell surface perturbations measured after 3 hrs by SEM analysis; format: subcellular; details: Candidozyma auris
[25] = system: Cell membrane; assay: Disruption of membrane integrity in Candida albicans ATCC 24433 assessed as cell deformation measured after 30 mins by SEM analysis; format: subcellular
[26] = system: Candida albicans; assay: Inhibition of drug efflux in Candida albicans ATCC 24433 overexpressing ADCDR1-GFP assessed as reduction in rhodamine 6g efflux preincubated for 45 mins followed by substrate addition and measured after 30 mins; format: functional; details: dose 0.1-100 µg/ml, time 75.0 min, DDE = dose-dependent effect
[27] = system: Cell membrane; assay: Disruption of membrane integrity in Candida albicans ATCC 24433 assessed as cell surface perturbations measured after 3 hrs by SEM analysis
[28] = system: [Candida] auris; assay: Induction of ROS generation in Candida auris CBS10913 at sub-inhibitory concentration incubated for 1 hr by DCFDA staining-based flow cytometric analysis; format: functional, organism-based; details: Candidozyma auris
[29] = system: Cell membrane; assay: Disruption of membrane integrity in Candida albicans ATCC 24433 assessed as cell shrinkage and lysis by measuring leakage of intracellular material measured after 6 hrs by SEM analysis; format: subcellular
[30] = system: Candida albicans; assay: Induction of ROS generation in Candida albicans ATCC 24433 assessed as increase in relative fluorescence unit at sub-inhibitory concentration incubated for 1 hr by DCFDA staining-based flow cytometric analysis; format: functional, organism-based
[31] = system: [Candida] auris; assay: Induction of ROS generation in Candida auris CBS10913 assessed as increase in relative fluorescence unit at sub-inhibitory concentration incubated for 1 hr by DCFDA staining-based flow cytometric analysis; format: functional, organism-based; details: Candidozyma auris
[32] = system: Cell membrane; assay: Disruption of membrane integrity in Candida auris CBS10913 assessed as cell shrinkage and lysis by measuring leakage of intracellular material measured after 6 hrs by SEM analysis; details: Candidozyma auris
[33] = system: Candida albicans; assay: Inhibition of drug efflux in Candida albicans ATCC 24433 overexpressing ADCaMDR1-GF assessed as […] in nile red efflux incubated for 30 mins by flow cytometry; format: functional
[34] = system: Candida albicans; assay: Fungicidal activity against Candida albicans ATCC 24433 assessed as reduction in fungal growth by measuring reduction in colony count at sub-MIC concentration measured after 48 hrs by time kill assay; format: functional, organism-based
[35] = system: Candida albicans; assay: Induction of ROS generation in Candida albicans ATCC 24433 at sub-inhibitory concentration incubated for 1 hr by DCFDA staining-based flow cytometric analysis; format: functional, organism-based
[36] = system: Candida albicans; assay: Inhibition of drug efflux in Candida albicans ATCC 24433 overexpressing ADPDR5-GFP assessed as reduction in rhodamine 6g efflux preincubated for 45 mins followed by substrate addition and measured after 30 mins; format: functional; details: dose 0.1-100 µg/ml, time 75.0 min, DDE = dose-dependent effect

| Compound | MIC80 [1] | MIC80 [2] | MIC80 [3] | MIC80 [4] | MIC80 [5] | MIC80 [6] | MIC80 [7] | MIC80 [8] | MIC80 [9] | MIC80 [10] | fractional inhibitory concentration index (FICI) [11] | MIC80 [12] | fractional inhibitory concentration index (FICI) [13] | MIC80 [15] | MIC80 [16] | MIC80 [17] | MIC80 [18] | MIC80 [19] | MIC80 [20] | MIC80 [21] | other results |
| --- | --- | --- | --- | --- | --- | --- | --- | --- | --- | --- | --- | --- | --- | --- | --- | --- | --- | --- | --- | --- | --- |
| Nc1c(/N=N/c2ccc(-c3ccc(/N=N/c4cc(S(=O)(=O)[O-])c5ccccc5c4N)cc3)cc2)cc(S(=O)(=O)[O-])c2ccccc12.[Na+].[Na+] [CONGO RED] | 100 µg/mL | 0.781 µg/mL |  |  |  |  |  |  |  |  |  |  |  |  |  |  |  |  |  |  |  |
| CC/C(=C\c1cccc([N+](=O)[O-])c1)[N+](=O)[O-] | 16 µg/mL (≈ 72 µM) | 8 µg/mL (≈ 36 µM) | 8 µg/mL (≈ 36 µM) | 16 µg/mL (≈ 72 µM) | 32 µg/mL (≈ 144 µM) | 8 µg/mL (≈ 36 µM) | 4 µg/mL (≈ 18 µM) | 16 µg/mL (≈ 72 µM) | 16 µg/mL (≈ 72 µM) | 16 µg/mL (≈ 72 µM) | <0.5 | 8 µg/mL (≈ 36 µM) | <0.5 | 16 µg/mL (≈ 72 µM) | 16 µg/mL (≈ 72 µM) | 8 µg/mL (≈ 36 µM) | 4 µg/mL (≈ 18 µM) | 8 µg/mL (≈ 36 µM) | 8 µg/mL (≈ 36 µM) | 32 µg/mL (≈ 144 µM) | fractional inhibitory concentration index (FICI) [14]: <0.5; fractional inhibitory concentration index (FICI) [22]: <0.5 |
| CC/C(=C\c1ccc(OC)c(OC)c1)[N+](=O)[O-] |  |  | 8 µg/mL (≈ 33.7 µM) | 8 µg/mL (≈ 33.7 µM) | 16 µg/mL (≈ 67.4 µM) | 8 µg/mL (≈ 33.7 µM) | 8 µg/mL (≈ 33.7 µM) | 16 µg/mL (≈ 67.4 µM) | 32 µg/mL (≈ 135 µM) | 32 µg/mL (≈ 135 µM) | <0.5 | 8 µg/mL (≈ 33.7 µM) | <0.5 | 8 µg/mL (≈ 33.7 µM) | 16 µg/mL (≈ 67.4 µM) | 8 µg/mL (≈ 33.7 µM) | 8 µg/mL (≈ 33.7 µM) | 16 µg/mL (≈ 67.4 µM) | 8 µg/mL (≈ 33.7 µM) | 32 µg/mL (≈ 135 µM) | fractional inhibitory concentration index (FICI) [22]: <0.5 |
| CC/C(=C\c1ccc(OC)cc1)[N+](=O)[O-] | 8 µg/mL (≈ 38.6 µM) | 2 µg/mL (≈ 9.65 µM) | 2 µg/mL (≈ 9.65 µM) | 2 µg/mL (≈ 9.65 µM) | 4 µg/mL (≈ 19.3 µM) | 4 µg/mL (≈ 19.3 µM) | 2 µg/mL (≈ 9.65 µM) | 2 µg/mL (≈ 9.65 µM) | 4 µg/mL (≈ 19.3 µM) | 4 µg/mL (≈ 19.3 µM) | <0.5 | 4 µg/mL (≈ 19.3 µM) | <0.5 | 4 µg/mL (≈ 19.3 µM) | 4 µg/mL (≈ 19.3 µM) | 2 µg/mL (≈ 9.65 µM) | 2 µg/mL (≈ 9.65 µM) | 4 µg/mL (≈ 19.3 µM) | 2 µg/mL (≈ 9.65 µM) | 8 µg/mL (≈ 38.6 µM) | inhibition [23]: Active; Activity [24]: Active; Activity [25]: Active; inhibition [26]: Dde; Activity [27]: Active; Activity [28]: Active; Activity [29]: Active; fractional inhibitory concentration index (FICI) [14]: <2.5; Activity [30]: Active; Activity [31]: Active; Activity [32]: Active; inhibition [33]: Active; Activity [34]: Active; Activity [35]: Active; fractional inhibitory concentration index (FICI) [22]: <0.5; inhibition [36]: Dde |
| O=[N+]([O-])/C=C/c1cccc(O)c1 | 16 µg/mL (≈ 96.9 µM) | 8 µg/mL (≈ 48.4 µM) | 4 µg/mL (≈ 24.2 µM) | 4 µg/mL (≈ 24.2 µM) | 16 µg/mL (≈ 96.9 µM) | 8 µg/mL (≈ 48.4 µM) | 8 µg/mL (≈ 48.4 µM) | > 32 µg/mL | 16 µg/mL (≈ 96.9 µM) | 16 µg/mL (≈ 96.9 µM) | <0.5 | 8 µg/mL (≈ 48.4 µM) | <0.5 | 16 µg/mL (≈ 96.9 µM) | 16 µg/mL (≈ 96.9 µM) | 8 µg/mL (≈ 48.4 µM) | 16 µg/mL (≈ 96.9 µM) | 32 µg/mL (≈ 194 µM) | 8 µg/mL (≈ 48.4 µM) | 16 µg/mL (≈ 96.9 µM) | fractional inhibitory concentration index (FICI) [22]: <0.5 |
| C[C@@H]1[C@H](O)[C@@H](C)/C=C/C=C/C=C/C=C/C=C/C=C/C=C/[C@H](O[C@@H]2O[C@H](C)[C@@H](O)[C@H](N)[C@@H]2O)C[C@@H]2O[C@](O)(C[C@@H](O)C[C@@H](O)[C@H](O)CC[C@@H](O)C[C@@H](O)CC(=O)O[C@H]1C)C[C@H](O)[C@H]2C(=O)O [AMPHOTERICIN B] | 0.5 µg/mL (≈ 0.541 µM) | 0.5 µg/mL (≈ 0.541 µM) |  |  |  |  |  |  |  |  |  |  |  |  |  |  |  |  |  |  |  |
